Data published in patent US20250051277A1, “DELIVERY OF THERAPEUTIC ALKALOID COMPOUNDS” (Sensorium Therapeutics, Inc., priority 2021, published 2025).
Read-outs that look alike come from different tables or passages of the source.

Assays:
[1] = type: physicochemical; settings: SGF with pepsin, pH 1.5, 37° C., 0.5 mM
[2] = Hydrolysis Assay of Example A1 (conversion by LCMS); type: physicochemical; settings: for Conversion (%) / Notes (hydrolysis): 0.5 mM, 0.01M HCl
Protocol: The hydrolysis kinetics was under a certain temperature and measured by LCMS at a certain time interval. The corresponding LCMS chromatograms were recorded and the conversions were calculated. The hydrolysis conditions and the data were summarized in below table. LCMS spectra were obtained using Agilent 1200/G1956A or SHIMADZU LCMS-2020. Standard LCMS conditions were as follows (running time 1.55 minutes): • Acidic condition: Mobile Phase A: 0.0375% TFA in water (v/v). Mobile Phase B: 0.01875% TFA in acetonitrile (v/v); Column: Kinetex EVO C18 30*2.1 mm, 5 μm. • Basic condition: Mobile Phase A: 0.025% NH3·H2O in water (v/v). Mobile Phase B: Acetonitrile; Column: Kinetex EVO C18 2.1×30 mm, 5 μm. • Conversion (%)=peak area 1/(peak area 1+peak area 2)*100%, peak area 1 is the integration of hydrolyzed product, peak area 2 is the integration of starting material.

[3] = Plasma Stability Assay of Example A3, human plasma; settings: 5 μM, 37° C., % of prodrug compound remaining
[4] = type: physicochemical; settings: DI water, 25° C., 0.5 mM
[5] = 5 μM
[6] = Plasma Stability Assay of Example A3, mouse plasma; settings: 5 μM, 37° C., % of prodrug compound remaining
[7] = 10 μM
Protocol: (§1) 50 μL aliquots of positive controls and test compounds spiked into rat or human plasma (n=2) were added to a pre-warmed plate (37° C.) and shaken at 50 rpm. At each respective time point, the reaction was stopped by adding 500 μL of acetonitrile containing internal standards (100 nM aprozolam, 200 nM caffeine, 100 nM tolbutamide). All samples were vortexed for 10 minutes, followed by centrifugation at 3,220 g for 30 minutes to precipitate proteins. 100 μL of the supernatant is transferred to a new plate. The supernatant will be diluted with ultrapure water according to the LC-MS signal response and peak shape.

[8] = 10 μM; remark: listed apart in the source
Protocol: as §1

COc1ccc([C@@]23CCC(=NO)C[C@@H]2N(C)CC3)cc1OC (mixture of isomers) [Compound 037]
Condition 1 Conversion (%) ([1]; time 1 min): 0%
Condition 1 Conversion (%) ([1]; time 5 min): 0%
Condition 1 Conversion (%) ([1]; time 30 min): 82.3%
Condition 1 Conversion (%) ([1]; time 1 h): 89%
Condition 1 Conversion (%) ([1]; time 4 h): 89.2%
Condition 1 Conversion (%) ([1]; time 24 h): 89.5%
conversion to mesembrine in the Hydrolysis Assay ([2]; acidic pH 2.0, temperatures of 25 or 37° C.): converted to mesembrine
Conversion (%) ([2]; pH = 2.0, 37° C., 10 min): 59%
Conversion (%) ([2]; pH = 2.0, 37° C., 60 min): 84%
Conversion (%) ([2]; pH = 2.0, 37° C., 90 min): 87%

COc1ccc([C@]23CCN(C)[C@H]2CC2(CC3)SCCS2)cc1OC (racemic) [Compound 014, (7′aS)-3′a-(3,4-dimethoxyphenyl)-1′-methyl-spiro[1,3-dithiolane-2,6′-2,3,4,5,7,7a-hexahydroindole]]
Conversion (%) ([2]; pH = 2.0, 25° C., 0-24 h): 0%
Notes (hydrolysis) ([2]; pH = 2.0, 25° C., 0-24 h): Stable

COc1ccc([C@@]23CC/C(=N\NC(=O)c4cccnc4)C[C@@H]2N(C)CC3)cc1OC [Compound 036, N-[[(3aS,7aS)-3a-(3,4-dimethoxyphenyl)-1-methyl-2,3,4,5,7,7a-hexahydroindol-6-ylidene]amino]pyridine-3-carboxamide]
Condition 1 Conversion (%) ([1]; time 1 min): 100%
Condition 1 Conversion (%) ([1]; time 5 min): 100%
Condition 1 Conversion (%) ([1]; time 30 min): 100%
Condition 1 Conversion (%) ([1]; time 1 h): 100%
Condition 1 Conversion (%) ([1]; time 4 h): 100%
Condition 1 Conversion (%) ([1]; time 24 h): 100%
Notes (hydrolysis) ([2]; pH = 2.0, 37° C., 0 to 1 min): Hydrolyzed
Conversion (%) ([2]; pH = 2.0, 37° C., 1 min): 100%
Conversion (%) ([2]; pH = 2.0, 37° C., time 0): 0%

COc1ccc([C@@]23CCC(OC(=O)c4ccc(N(C)C)cc4)=C[C@@H]2N(C)CC3)cc1OC [Compound 355, [(3aS,7aS)-3a-(3,4-dimethoxyphenyl)-1-methyl-3,4,5,7a-tetrahydro-2H-indol-6-yl]4-(dimethylamino)benzoate]
Human Plasma Prodrug (%) ([3]; 0 min): 100.0%
Human Plasma Prodrug (%) ([3]; 15 min): >99%
Human Plasma Prodrug (%) ([3]; 30 min): >99%
Human Plasma Prodrug (%) ([3]; 60 min): >99%
Human Plasma Prodrug (%) ([3]; 120 min): >99%
Human Plasma Prodrug (%) ([3]; 240 min): 93.2%
Condition 2 Conversion (%) ([4]; time 1 min): 0%
Condition 2 Conversion (%) ([4]; time 5 min): 0%
Condition 2 Conversion (%) ([4]; time 30 min): 0%
Condition 2 Conversion (%) ([4]; time 1 h): 0%
Condition 2 Conversion (%) ([4]; time 4 h): 0%
Condition 2 Conversion (%) ([4]; time 24 h): 0%
Condition 1 Conversion (%) ([1]; time 1 min): 0%
Condition 1 Conversion (%) ([1]; time 5 min): 0%
Condition 1 Conversion (%) ([1]; time 30 min): 0%
Condition 1 Conversion (%) ([1]; time 1 h): 0%
Condition 1 Conversion (%) ([1]; time 4 h): 0%
Condition 1 Conversion (%) ([1]; time 24 h): 0%
Human Plasma Compound 001 (%) ([5]; 0 min): 0.0%
Mouse Plasma Prodrug (%) ([6]; 0 min): 100.0%
Mouse Plasma Prodrug (%) ([6]; 15 min): 50.6%
Mouse Plasma Prodrug (%) ([6]; 30 min): 30.8%
Mouse Plasma Prodrug (%) ([6]; 60 min): 9.9%
Mouse Plasma Prodrug (%) ([6]; 120 min): 0.5%
Mouse Plasma Prodrug (%) ([6]; 240 min): 0.0%

COc1ccc([C@@]23CCC(OC(=O)c4cccc(C)c4C)=C[C@@H]2N(C)CC3)cc1OC [Compound 373, (3aS,7aS)-3a-(3,4-dimethoxyphenyl)-1-methyl-2,3,3a,4,5,7a-hexahydro-1H-indol-6-yl2,3-dimethylbenzoate]
Prodrug (%) remaining, Human Plasma ([7]; 0 h): 100.0%
Prodrug (%) remaining, Human Plasma ([7]; 10 min): 96.3%
Prodrug (%) remaining, Human Plasma ([7]; 0.5 h): >99%
Prodrug (%) remaining, Human Plasma ([7]; 1 h): 94.8%
Prodrug (%) remaining, Human Plasma ([7]; 2 h): 89.9%
Prodrug (%) remaining, Human Plasma ([7]; 4 h): 96.3%
Human Plasma Prodrug (%) ([3]; 0 min): 100%
Human Plasma Prodrug (%) ([3]; 15 min): 93.9%
Human Plasma Prodrug (%) ([3]; 30 min): 96.5%
Human Plasma Prodrug (%) ([3]; 60 min): 81.4%
Human Plasma Prodrug (%) ([3]; 120 min): 66.1%
Human Plasma Prodrug (%) ([3]; 240 min): 17.2%
Human Plasma Compound 001 (%) ([5]; 0 min): 0%
Prodrug (%) remaining, Rat Plasma ([8]; 0 h): 100.0%
Prodrug (%) remaining, Rat Plasma ([8]; 10 min): 81.0%
Prodrug (%) remaining, Rat Plasma ([8]; 0.5 h): 58.4%
Prodrug (%) remaining, Rat Plasma ([8]; 1 h): 26.8%
Prodrug (%) remaining, Rat Plasma ([8]; 2 h): 5.2%
Prodrug (%) remaining, Rat Plasma ([8]; 4 h): 1.3%
Mouse Plasma Prodrug (%) ([6]; 0 min): 100%
Mouse Plasma Prodrug (%) ([6]; 15 min): 82%
Mouse Plasma Prodrug (%) ([6]; 30 min): 64%
Mouse Plasma Prodrug (%) ([6]; 60 min): 41%
Mouse Plasma Prodrug (%) ([6]; 120 min): 12%
Mouse Plasma Prodrug (%) ([6]; 240 min): 1%

COc1ccc([C@@]23CCC(OC(=O)c4cccc(C)c4)=C[C@@H]2N(C)CC3)cc1OC [Compound 374, (3aS,7aS)-3a-(3,4-dimethoxyphenyl)-1-methyl-2,3,3a,4,5,7a-hexahydro-1H-indol-6-yl3-methylbenzoate]
Prodrug (%) remaining, Human Plasma ([7]; 0 h): 100.0%
Prodrug (%) remaining, Human Plasma ([7]; 10 min): >99%
Prodrug (%) remaining, Human Plasma ([7]; 0.5 h): >99%
Prodrug (%) remaining, Human Plasma ([7]; 1 h): >99%
Prodrug (%) remaining, Human Plasma ([7]; 2 h): >99%
Prodrug (%) remaining, Human Plasma ([7]; 4 h): 95.4%
Human Plasma Prodrug (%) ([3]; 0 min): 100%
Human Plasma Prodrug (%) ([3]; 15 min): 98%
Human Plasma Prodrug (%) ([3]; 30 min): 88%
Human Plasma Prodrug (%) ([3]; 60 min): 84%
Human Plasma Prodrug (%) ([3]; 120 min): 62%
Human Plasma Prodrug (%) ([3]; 240 min): 11%
Human Plasma Compound 001 (%) ([5]; 0 min): 0.00%
Human Plasma Compound 001 (%) ([5]; 30 min): 3.19%
Human Plasma Compound 001 (%) ([5]; 60 min): 5.92%
Human Plasma Compound 001 (%) ([5]; 120 min): 9.01%
Human Plasma Compound 001 (%) ([5]; 240 min): 7.54%
Prodrug (%) remaining, Rat Plasma ([8]; 0 h): 100.0%
Prodrug (%) remaining, Rat Plasma ([8]; 10 min): 9.7%
Prodrug (%) remaining, Rat Plasma ([8]; 0.5 h): 0.3%
Prodrug (%) remaining, Rat Plasma ([8]; 1 h): 0.1%
Prodrug (%) remaining, Rat Plasma ([8]; 2 h): 0.0%
Prodrug (%) remaining, Rat Plasma ([8]; 4 h): 0.0%
Mouse Plasma Prodrug (%) ([6]; 0 min): 100%
Mouse Plasma Prodrug (%) ([6]; 15 min): 33%
Mouse Plasma Prodrug (%) ([6]; 30 min): 4%
Mouse Plasma Prodrug (%) ([6]; 60 min): 0%
Mouse Plasma Prodrug (%) ([6]; 120 min): 0%
Mouse Plasma Prodrug (%) ([6]; 240 min): 0%
